“And” between values parts separate entries of the source, which are not always exact repeats. Identical values can stand only once. Inconclusive results and toxic doses are left out. Rule as the data show it: active = T/C of 150% or more; inactive = T/C below 125%.
Tested on: L1210 leukemia ip in BDF1 mice, survival T/C
Assay: NCI In Vivo Anticancer Drug Screen. Data for tumor model L1210 Leukemia (intraperitoneal) in B6D2F1 (BDF1) mice
Conditions: endpoint: mean survival time, higher = longer survival
Procedure, shortened: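 Ratio derived from survival: compound-dosed mice over vehicle-dosed mice, all bearing a transplantable tumor.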

[1] = dose: 100.0 mg/kg/injection, schedule: Q01DX001 (ip), vehicle: saline
[2] = dose: 100.0 mg/kg/injection, schedule: Q01DX009 (ip), vehicle: saline
[3] = dose: 100.0 mg/kg/injection, schedule: Q04DX002 (ip), vehicle: saline
[4] = dose: 200.0 mg/kg/injection, schedule: Q01DX001 (ip), vehicle: saline
[5] = dose: 200.0 mg/kg/injection, schedule: Q01DX009 (ip), vehicle: saline
[6] = dose: 200.0 mg/kg/injection, schedule: Q04DX002 (ip), vehicle: saline
[7] = dose: 400.0 mg/kg/injection, schedule: Q01DX001 (ip), vehicle: saline
[8] = dose: 400.0 mg/kg/injection, schedule: Q01DX009 (ip), vehicle: saline
[9] = dose: 100.0 mg/kg/injection, schedule: Q04DX003 (ip), vehicle: saline
[10] = dose: 200.0 mg/kg/injection, schedule: Q04DX003 (ip), vehicle: saline
[11] = dose: 100.0 mg/kg/injection, schedule: Q01DX009 (ip), vehicle: Klucel (hydroxypropylcellulose) (HPC)
[12] = dose: 200.0 mg/kg/injection, schedule: Q01DX009 (ip), vehicle: Klucel (hydroxypropylcellulose) (HPC)
[13] = dose: 100.0 mg/kg/injection, schedule: Q04DX002 (ip), vehicle: Klucel (hydroxypropylcellulose) (HPC)
[14] = dose: 100.0 mg/kg/injection, schedule: Q04DX003 (ip), vehicle: Klucel (hydroxypropylcellulose) (HPC)
[15] = dose: 200.0 mg/kg/injection, schedule: Q04DX002 (ip), vehicle: Klucel (hydroxypropylcellulose) (HPC)
[16] = dose: 200.0 mg/kg/injection, schedule: Q04DX003 (ip), vehicle: Klucel (hydroxypropylcellulose) (HPC)
[17] = dose: 400.0 mg/kg/injection, schedule: Q04DX002 (ip), vehicle: Klucel (hydroxypropylcellulose) (HPC)
[18] = dose: 400.0 mg/kg/injection, schedule: Q04DX003 (ip), vehicle: Klucel (hydroxypropylcellulose) (HPC)
[19] = dose: 25.0 mg/kg/injection, schedule: Q01DX009 (ip), vehicle: saline
[20] = dose: 50.0 mg/kg/injection, schedule: Q01DX009 (ip), vehicle: saline
[21] = dose: 100.0 mg/kg/injection, schedule: Q01DX009 (ip), vehicle: saline with Tween-80
[22] = dose: 200.0 mg/kg/injection, schedule: Q01DX009 (ip), vehicle: saline with Tween-80
[23] = dose: 400.0 mg/kg/injection, schedule: Q01DX009 (ip), vehicle: saline with Tween-80

Measured: T/C

NC(N)=N/N=C(/c1cccs1)C1CC1
inactive: dose: 15.0 mg/kg/injection, schedule: Q01DX Z (ip), vehicle: methylcellulose (MC) 101 % of control | dose: 15.0 mg/kg/injection, schedule: Q01DX Z (oral), vehicle: methylcellulose (MC) 92 % of control | dose: 30.0 mg/kg/injection, schedule: Q01DX Z (ip), vehicle: methylcellulose (MC) 96 % of control | dose: 30.0 mg/kg/injection, schedule: Q01DX Z (oral), vehicle: methylcellulose (MC) 97 % of control | dose: 60.0 mg/kg/injection, schedule: Q01DX Z (ip), vehicle: methylcellulose (MC) 110 % of control | dose: 120.0 mg/kg/injection, schedule: Q01DX Z (ip), vehicle: methylcellulose (MC) 97 % of control

CCCCCCCCN(C)Cc1cc(C(C)(C)C)cc(-c2ccccc2)c1O
inactive: dose: 100.0 mg/kg/injection, schedule: Q01DX001 (ip), vehicle: saline with Tween-80 94 % of control | dose: 200.0 mg/kg/injection, schedule: Q01DX001 (ip), vehicle: saline with Tween-80 90 % of control | dose: 400.0 mg/kg/injection, schedule: Q01DX001 (ip), vehicle: saline with Tween-80 92 % of control

NNc1cc(S(=O)(=O)O)cc(C(=O)O)c1O
inactive: [1] 107 % of control | [2] 100 % of control and 103 % of control | [3] 97 % of control and 90 % of control | [4] 102 % of control | [5] 110 % of control and 89 % of control | [6] 100 % of control and 90 % of control | [7] 102 % of control | [8] 87 % of control | dose: 400.0 mg/kg/injection, schedule: Q04DX002 (ip), vehicle: saline 108 % of control and 90 % of control

O=C1NC(=O)C(c2ccc(F)cc2)N1 (stereo unspecified)
inactive: dose: 50.0 mg/kg/injection, schedule: Q01DX001 (ip), vehicle: saline 100 % of control | [1] 100 % of control | [4] 97 % of control | [7] 97 % of control

CCCCNC(C)(C)C(=O)c1cccs1
inactive: [9] 102 % of control | [10] 86 % of control

Cc1cc(C(=O)O)c(C)n1-c1cccc2ccccc12
inactive: dose: 75.0 mg/kg/injection, schedule: Q04DX003 (ip), vehicle: Klucel (hydroxypropylcellulose) (HPC) 98 % of control | [11] 102 % of control | dose: 150.0 mg/kg/injection, schedule: Q04DX003 (ip), vehicle: Klucel (hydroxypropylcellulose) (HPC) 98 % of control | [12] 108 % of control | dose: 300.0 mg/kg/injection, schedule: Q04DX003 (ip), vehicle: Klucel (hydroxypropylcellulose) (HPC) 97 % of control | dose: 400.0 mg/kg/injection, schedule: Q01DX009 (ip), vehicle: Klucel (hydroxypropylcellulose) (HPC) 113 % of control

Clc1ccc(CNc2ncnc3[nH]ncc23)cc1
inactive: dose: 100.0 mg/kg/injection, schedule: Q01DX001 (ip), vehicle: other 100 % of control | dose: 100.0 mg/kg/injection, schedule: Q04DX003 (ip), vehicle: other 104 % of control | dose: 200.0 mg/kg/injection, schedule: Q01DX001 (ip), vehicle: other 106 % of control | dose: 200.0 mg/kg/injection, schedule: Q04DX003 (ip), vehicle: other 113 % of control | dose: 400.0 mg/kg/injection, schedule: Q01DX001 (ip), vehicle: other 108 % of control | dose: 400.0 mg/kg/injection, schedule: Q04DX003 (ip), vehicle: other 103 % of control

CC(=N/Nc1ccc([N+](=O)[O-])cc1[N+](=O)[O-])/C(C)=C/C1C=CCCC1(C)C (stereo unspecified)
inactive: dose: 100.0 mg/kg/injection, schedule: Q04DX002 (ip), vehicle: saline with Tween-80 100 % of control | dose: 200.0 mg/kg/injection, schedule: Q04DX002 (ip), vehicle: saline with Tween-80 103 % of control | dose: 400.0 mg/kg/injection, schedule: Q04DX002 (ip), vehicle: saline with Tween-80 96 % of control

Cc1cc2cc3n(c2nn1)N=CCC3
inactive: [3] 106 % of control | [6] 103 % of control

C[C@]12CCC(=O)C=C1CC[C@@H]1[C@@H]2[C@@H](O)C[C@@]2(C)[C@H]1CC[C@]2(O)C(=O)COC(=O)CCC(=O)O
inactive: dose: 50.0 mg/kg/injection, schedule: Q01DX001 (sc), vehicle: steriod suspending solution 107 % of control | dose: 100.0 mg/kg/injection, schedule: Q01DX001 (sc), vehicle: steriod suspending solution 104 % of control | dose: 100.0 mg/kg/injection, schedule: Q01DX009 (ip), vehicle: steriod suspending solution 108 % of control | dose: 100.0 mg/kg/injection, schedule: Q04DX003 (sc), vehicle: steriod suspending solution 100 % of control | dose: 200.0 mg/kg/injection, schedule: Q01DX001 (sc), vehicle: steriod suspending solution 105 % of control | dose: 200.0 mg/kg/injection, schedule: Q01DX009 (ip), vehicle: steriod suspending solution 101 % of control | dose: 200.0 mg/kg/injection, schedule: Q04DX003 (sc), vehicle: steriod suspending solution 96 % of control | dose: 400.0 mg/kg/injection, schedule: Q01DX001 (sc), vehicle: steriod suspending solution 94 % of control | dose: 400.0 mg/kg/injection, schedule: Q01DX009 (ip), vehicle: steriod suspending solution 103 % of control | dose: 400.0 mg/kg/injection, schedule: Q04DX003 (sc), vehicle: steriod suspending solution 102 % of control

C=CCNC(=S)NCc1ccc(C)cc1
inactive: [11] 96 % of control | [12] 93 % of control

Cc1c(C)c(O)c(SC(CC(=O)O)C(=O)O)c(C)c1O (stereo unspecified)
inactive: [13] 100 % of control | [14] 103 % of control | [15] 103 % of control | [16] 103 % of control | [17] 97 % of control | [18] 90 % of control

N#CC(CCCc1ccccc1)c1ccc(N)cc1 (stereo unspecified)
inactive: dose: 100.0 mg/kg/injection, schedule: Q01DX001 (ip), vehicle: Klucel (hydroxypropylcellulose) (HPC) 91 % of control | dose: 200.0 mg/kg/injection, schedule: Q01DX001 (ip), vehicle: Klucel (hydroxypropylcellulose) (HPC) 94 % of control | dose: 400.0 mg/kg/injection, schedule: Q01DX001 (ip), vehicle: Klucel (hydroxypropylcellulose) (HPC) 103 % of control

O=C1CCCC2C1C1(O)CCC2(O)c2cccc(O)c21 (stereo unspecified)
inactive: dose: 6.25 mg/kg/injection, schedule: Q01DX009 (ip), vehicle: saline 109 % of control | dose: 12.5 mg/kg/injection, schedule: Q01DX009 (ip), vehicle: saline 102 % of control | [19] 101 % of control | [20] 98 % of control | [1] 96 % of control | [2] 91 % of control | [4] 103 % of control

O=C1NC(=O)C(c2ccccn2)N1 (stereo unspecified)
inactive: [21] 91 % of control | [22] 91 % of control | [23] 94 % of control

CC(C)NNC(=O)C(N)CCC(=O)O (stereo unspecified)
inactive: [19] 105 % of control | dose: 25.0 mg/kg/injection, schedule: Q04DX003 (ip), vehicle: saline 117 % of control | [20] 91 % of control | dose: 50.0 mg/kg/injection, schedule: Q04DX003 (ip), vehicle: saline 107 % of control | [2] 98 % of control | [9] 91 % of control | [5] 109 % of control | [10] 90 % of control | [8] 118 % of control | dose: 400.0 mg/kg/injection, schedule: Q04DX003 (ip), vehicle: saline 98 % of control

CSc1ccc(NC(=O)NCCc2ccccc2)cc1
inactive: [21] 94 % of control | [14] 96 % of control | [22] 102 % of control | [16] 96 % of control | [23] 107 % of control | [18] 104 % of control

Cc1c(O)cc2c(c1O)C(=O)CC(c1ccc(O)cc1)O2 (stereo unspecified)
inactive: [13] 91 % of control | [15] 87 % of control | [17] 108 % of control

— PubChem BioAssay AID248 (DTP/NCI, 2004)
